Columns and labels:
[1] = system: BC4-M5M12 × PHA155 hybrid; assay: Test E injury to sunflower hybrid; assay type: in vivo
Outline: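 Hybrid BC4-M5M12 × PHA155, three replications; herbicides given as seed coatings, pre-emergence broadcast sprays two days after sowing at high rates, or post-emergence at 4-6, 6-8 (high and low rates) and 8-12 leaf stages matching early, mid and late Orobanche attachment. Other ALS inhibitors included.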

M5M11 = assay: Test B greenhouse phytotoxicity, M5M11; assay type: in vivo, sunflower; details: in vivo
Outline: (§1)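 Formulated ALS-inhibiting herbicides sprayed post-emergence at the 4-leaf stage on homozygous mutant sunflower inbreds (M5 maintainers and BC4 male-sterile back-crosses) in the greenhouse, at rates commonly used in registered crops. Two replicates; crop injury rated as % phytotoxicity, 0% meaning no injury.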

M5M12 = assay: Test B greenhouse phytotoxicity, M5M12; assay type: in vivo, sunflower; details: in vivo
Outline: as §1

BC4-M5M11 = assay: Test B greenhouse phytotoxicity, BC4-M5M11; assay type: in vivo, sunflower; details: in vivo
Outline: as §1

Orobanche cumana = assay: Test D control of Orobanche cumana in resistant sunflower; assay type: in vivo
Experimental: The purpose of this test was to evaluate the efficacy of tribenuron-methyl to control Orobanche cumana before and after crop emergence from the soil. Various herbicide treatments were evaluated using six replications of each treatment. Treatments investigated the following modes of application: seed coating, pre-emergence soil incorporation, bare-ground pre-emergence broadcast application, and post-emergence broadcast application. All herbicide treatments used formulated herbicide compositions.
For seed coating treatments, 3 mg of Orobanche cumana seeds were added to each pot containing a growing mixture of 60% dry loamy soil, 20% sand and 20% of peat, the growing mixture having an organic matter content of 4.2% and a pH of 8.05. The pots were placed in plastic trays and watered to the extent of 25% of soil weight. Pots were kept in a greenhouse for 8 to 10 days at about 24° C. during the day and 20° C. at night. Eight seeds of BC4-M5M12 sunflower resistant mutant were sown manually in the pots contaminated with Orobanche, at the end of the incubation period of the parasitic weed seeds.
Seeds were first coated using a table-top laboratory fluid bed equipped with a coating device (“Strea 1 Aerocoater” made by Niro Aeromatic, Haupstrasse 145, CH-4416 Bubendorf, Switzerland) and a coating solution containing about 23% Sepiret 8330® (coating composition sold by Seppic, 75 quai d'Orsay Paris 75321 cedex 07 France) and 77% water at the rate of 3 L/100 Kg of seeds. After coating, the seeds were dried in a fluid bed drier at 35° C. […] The coated seeds were then dried at ambient temperature and stored until sowing.
The soil was then thoroughly mixed by hand and dispensed into the pots. The quantities of tribenuron-methyl used in these treatments are expressed in g a.i./ha based on the soil volume and pot dimensions. The quantities applied were 11.25 and 22.5 g a.i./ha.
The effect of the various treatments was evaluated 35 days after sowing. The sunflower roots were cleaned by washing in water, and the presence of Orobanche nodules was determined visually and by weighing root wet mass in comparison to check plants free of Orobanche infestation. […] The nodules caused by Orobanche increased root weight, and a correlation (r=0.7) was found between visual scores and weight measurements. Thus the weighing technique could be used to corroborate visual efficacy scorings. Orobanche emergence was also scored but found to be less useful to evaluate treatment efficiency at the evaluation timing of this test.

BC4-M5M7 = assay: Test B greenhouse phytotoxicity, BC4-M5M7; assay type: in vivo, sunflower; details: in vivo
Outline: as §1

M5M7 = assay: Test B greenhouse phytotoxicity, M5M7; assay type: in vivo, sunflower; details: in vivo
Outline: as §1

[2] = system: homozygous progeny of the three mutant sources; assay type: in vivo, sunflower; details: Test B application rates, post-emergence
Outline: as §1

BC4-M5M12 = assay: Test B greenhouse phytotoxicity, BC4-M5M12; assay type: in vivo, sunflower; details: in vivo
Outline: as §1

BC4-M5M7 × PHA155 = assay: Test C field phytotoxicity, BC4-M5M7 × PHA155; assay type: in vivo, sunflower
Source text: A rating of 0% phytotoxicity means no crop injury.

COC(=O)c1ccccc1S(=O)(=O)NC(=O)Nc1nc(C)nc(OC)n1 [Metsulfuron-methyl, metsulfuron-methyl]
sunflower phytotoxicity ([1]; in vivo): more likely to cause sunflower phytotoxicity

COC(=O)c1ccccc1S(=O)(=O)NC(=O)N(C)c1nc(C)nc(OC)n1 [Tribenuron-methyl, tribenuron-methyl]
Maximum Phytotoxicity (M5M11): 0%
Maximum Phytotoxicity (M5M12): 7.5%
Maximum Phytotoxicity (BC4-M5M11): 17.5%
Control (Orobanche cumana; post-emergence broadcast spray 2.25 g a.i./ha): 63%
Control (Orobanche cumana; pre-emergence broadcast spray 11.25 g a.i./ha + post-emergence broadcast spray 11.25 g a.i./ha): 78%
Control (Orobanche cumana; pre-emergence broadcast spray 22.5 g a.i./ha): 40%
Control (Orobanche cumana; pre-emergence soil incorporation 11.25 g a.i./ha): 55%
Control (Orobanche cumana; pre-emergence soil incorporation 22.5 g a.i./ha): 72%
Control (Orobanche cumana; seed coating 0.00001 mg a.i./g + post-emergence broadcast spray 2.25 g a.i./ha): 63%
Control (Orobanche cumana; seed coating 0.00001 mg a.i./g + post-emergence broadcast spray 11.25 g a.i./ha): 70%
Control (Orobanche cumana; seed coating 0.00001 mg a.i./g, host BC4-M5M12, 35 days after sowing): 8%
Control (Orobanche cumana; seed coating 0.1 mg a.i./g + post-emergence broadcast spray 2.25 g a.i./ha): 85%
Control (Orobanche cumana; seed coating 0.1 mg a.i./g + post-emergence broadcast spray 11.25 g a.i./ha): 80%
Control (Orobanche cumana; seed coating 0.1 mg a.i./g, host BC4-M5M12, 35 days after sowing): 37%
Control (Orobanche cumana; seed coating 10 mg a.i./g + post-emergence broadcast spray 2.25 g a.i./ha): 82%
Control (Orobanche cumana; seed coating 10 mg a.i./g + post-emergence broadcast spray 11.25 g a.i./ha): 89%
Maximum Phytotoxicity (BC4-M5M7): 10%
Maximum Phytotoxicity (M5M7): 12.5%
tolerance of the mutants [2]: good tolerance
Maximum Phytotoxicity (BC4-M5M12): 20%

COC(=O)c1cccc(C)c1S(=O)(=O)NC(=O)Nc1nc(OCC(F)(F)F)nc(N(C)C)n1 [Triflusulfuron-methyl, triflusulfuron-methyl]
Phytotoxicity Rating After Treatment (BC4-M5M7 × PHA155; postemergence 7.5 g a.i./ha, 7 DAT): 38%
Phytotoxicity Rating After Treatment (BC4-M5M7 × PHA155; postemergence 7.5 g a.i./ha, 15 DAT): 40%
Phytotoxicity Rating After Treatment (BC4-M5M7 × PHA155; postemergence 7.5 g a.i./ha, 30 DAT): 28%
Phytotoxicity Rating After Treatment (BC4-M5M7 × PHA155; postemergence 15 g a.i./ha, 7 DAT): 57%
Phytotoxicity Rating After Treatment (BC4-M5M7 × PHA155; postemergence 15 g a.i./ha, 15 DAT): 53%
Phytotoxicity Rating After Treatment (BC4-M5M7 × PHA155; postemergence 15 g a.i./ha, 30 DAT): 40%
sunflower phytotoxicity ([1]; Test E rates): transitory phytotoxicity symptoms
Injury ([1]; post-emergence 18.75 g a.i./ha at T2): 0%

Reference: patent publication US6822146B2, “Sulfonylurea-tolerant sunflower line M7” (priority 2000, dated 2004)
